melting point	Compound
130 to 132 °C	CC(C)(C)OC(=O)NCCCn1ncc2cc(Br)ccc2c1=O
270 °C	O=c1[nH]cc(-c2ccnc(Cl)c2)n1-c1ccc(F)cc1
104 to 106 °C	Cc1ccc(C2OCC(C)(CO)CO2)cc1 (stereo unspecified)
58 °C	CC(=O)N1C(=O)C=CC1=O
183 to 184 °C	COc1ccc(C(=O)O)c(N)c1OC
108 to 110 °C	CC(C)NC(=O)OCC(=O)c1ccccc1
45 to 46 °C	COc1cc(CCCC(=O)OC(C)C)ccc1OCc1nc(-c2ccco2)oc1C
110 to 113 °C	CCOC(=O)c1cn(C2COC2)c2c(F)c(F)c(F)c(F)c2c1=O
112 to 114 °C	Fc1ccc(C2OC3(CCNCC3)N3CCCCC23)cc1 (stereo unspecified)
76 °C	CCCN(CCC)S(=O)(=O)c1cc(C(=O)CCl)ccc1Cl
106 to 108 °C	CCn1c2ccc(C(=O)CCCCl)cc2c2cc(C(=O)CCCCl)ccc21
164 to 165 °C	Ic1ccc(-c2cc[nH]c2)cc1
137 to 140 °C	Fc1cc(CC2(Cc3ccnc(F)c3)c3ccccc3-c3ncccc32)ccn1
226 to 227 °C	CC1(C)C=C(N2CCCS2(=O)=O)c2cc(S(C)(=O)=O)ccc2O1
221 to 223 °C	CN1CCC(c2c[nH]c3ccc(NC(=O)c4ccccn4)nc23)CC1
156 °C	COC(=O)c1cc(F)c(-n2c(=O)[nH]n(C)c2=O)cc1F
54 to 55 °C	FC(F)(c1ccccc1)C(F)(F)c1ccccc1Br
298 °C	Clc1cccc(-c2nc3ccccn3c2-c2ccnc(-c3ccc(OCCN4CCCC4)cc3)c2)c1
233 to 236 °C	CCc1cc2c(ccc(=O)n2Cc2ccc(NC(=O)c3ccccc3S(=O)(=O)O)cc2)c(CC)n1
171 to 174 °C	COCc1cnc(N)nc1N
162 to 163 °C	O=C1OCCN1c1cc(-c2ccnc(Nc3cccc(Cl)c3)n2)ccn1
224 to 226 °C	COc1ccc(C2Cc3cc(C(F)(F)F)ccc3NC(=O)C2CSC)cc1 (stereo unspecified)
135 to 137 °C	CCCCc1nc(C(=O)C(C)(C)C)c(C#N)[nH]1
63 to 66 °C	CCC(C(=O)N(CC)CC)n1ccc(-c2ccccc2)n1 (stereo unspecified)
189 to 190 °C	CC(C)CCCC(C)C1CCC2=C3C(=O)CC4C(C)(C)C(OC(=O)c5ccccc5)CCC4(C)C3CCC21C (stereo unspecified)

melting point	Compound
230 to 232 °C	CCOCc1nc2c(N)nc3ccccc3c2n1CC1(C(N)=O)CC1
181 °C	CC(C)N1CCN(c2ccc(Nc3cc(-c4ccc5c(CCO)cn(C)c5c4)c(Cl)n4ccnc34)nc2)CC1
> 260 °C	N#Cc1ccc(-c2ccc(-c3nc(N)nc(N)n3)cc2)cc1
183 to 184 °C	CC(=O)N1c2ccccc2-c2c([N+](=O)[O-])cnn2C1c1ccc(Cl)cc1 (stereo unspecified)
238 °C	CC(C)(C)OC(=O)N1CCCC(C2=C(C#N)C(c3cccc(C#N)c3Br)c3c[nH]nc3N2)C1 (stereo unspecified)
200 to 202 °C	O=C(O)c1cccc2c1CCc1cc(F)ccc1S2
188 °C	NC(=O)C1CCc2cc3c(nc21)CCC3 (stereo unspecified)
178 to 180 °C	CCOC(=O)c1cn(-c2nonc2C)c2cc(F)c(F)cc2c1=O
201 to 204 °C	C#CCCn1nnc2cc3c(=O)n(C(C)Cn4cnnn4)nnc3cc2c1=O (stereo unspecified)
205 to 208 °C	O=C(O)c1cc2c(s1)CCc1ccccc1-2
76 to 77 °C	N#CC1(c2ccc([N+](=O)[O-])cc2)CCCC1
180 to 182 °C	Nc1cccc(-c2ccc(CCN3CCN(C(=O)NC4CCCCC4)CC3)cc2)n1
76 to 77 °C	CCOP(=O)(OCC)C(CNc1nc(C)cc(Oc2ccc(Cl)cc2Cl)n1)P(=O)(OCC)OCC
195 to 197 °C	O=C(O)COc1cccc(C(=O)O)c1OCC(=O)O
66 to 68 °C	Cc1ccc([N+](=O)[O-])c(C=O)c1C
175 to 180 °C	Cc1c(C)c2c(c(C)c1O)CCC(C)(CCOc1ccc(CC3SC(=N)NC3=O)cc1)O2 (stereo unspecified)
150 to 152 °C	CS(=O)(=O)c1ccc(-c2cccn2-c2ccc(OC(F)(F)F)cc2)cc1
227 to 229 °C	COC(=O)c1cc(=O)c2c(C)cc(C)cc2[nH]1
197 to 199 °C	O=S(=O)(Nc1c(Cl)ccc2cc(-c3ncc(CO)s3)[nH]c12)c1cccs1
150 to 153 °C	N=C(N)Nc1ncc(CSCCN)s1
110 °C	CCCCCN1CC[C@@H](c2ccccc2C(F)(F)F)[C@H](CO)C1 (racemic)
128 to 129 °C	CC[C@@H](C)[C@H](N)C(O)(c1ccccc1)c1ccccc1
160 to 161 °C	CCCCNc1cc(-c2ccccc2)nc2nn(C)cc12
230 °C	CC=CCNc1cc(C(=O)O)cc(S(N)(=O)=O)c1Nc1ccc(NC(C)=O)cc1
122 to 124 °C	N#CC1=C(C#N)SC(c2ccccc2)CS1 (stereo unspecified)

melting point	Compound
220 to 221 °C	OCCCn1cc(-c2cc3nccnc3[nH]2)c2ccccc21
84 to 86 °C	CCCc1c(OCCCC#CC(=O)NCCCCc2cccnc2)ccc(C(C)=O)c1O
120 °C	O=C(c1ccc([N+](=O)[O-])cc1)N1CCC(OCc2ccc(F)cc2)CC1
191 to 194 °C	COc1cc(Nc2nccc(-c3sc(Nc4ccccc4)nc3C)n2)cc(OC)c1
131 to 132 °C	CCOC(=O)c1ccc2oc3ncccc3c(=O)c2c1
118 to 120 °C	CCCCCc1c(C(C)C)nc(C(C)C)c(CO)c1-c1ccc(F)c(C(O)c2ccc(F)cc2)c1 (stereo unspecified)
131 °C	CCCCC(C(=O)O)c1cccc(C(=O)c2cc3ccsc3s2)c1 (stereo unspecified)
163 to 165 °C	CCCCc1oc2ccccc2c1S(=O)(=O)c1ccc(O)cc1
170 to 180 °C	Cc1ccc(F)cc1C(=O)Nc1ccc(C(=O)N2Cc3cccn3Cc3ccccc32)cc1
127 to 128 °C	COCCOc1ccc(/C=C/COC(=O)NS(=O)(=O)NCCOC(C)C)c(Oc2ncc(C(F)(F)F)cc2Cl)c1
230 to 234 °C	CCOC(=O)C(=O)c1csc(NC(=O)Nc2ccc(Cl)cc2)n1
128 to 130 °C	COc1ccc(CCc2ccc(NC=O)cc2)cc1OC
199 to 200 °C	COCn1c(C(=O)O)cc2cccc(NS(=O)(=O)c3ccccn3)c21
148 to 150 °C	CC(C)CCN1C(=O)C(N)C(=O)Nc2ccccc21 (stereo unspecified)
85 to 87 °C	CCOC(=O)c1cnoc1-c1cccc(OC)c1
176 to 177 °C	c1ccc(CN2CCc3[nH]c4cc(-c5ccccc5)ccc4c3CC2)cc1
134 to 137 °C	CCCOc1ccc(C2=NN(C(=O)Nc3ccc(C(F)(F)F)cc3)CC2(C)C(=O)OC)cc1 (stereo unspecified)
50 to 70 °C	CC(C)(C)SCc1c(-c2ccc(S(C)(=O)=O)cc2)cnn(-c2ccc(F)cc2)c1=O
139 to 140 °C	N#Cc1c(Nc2ccccc2)nn(Cc2ccccc2)c1N
94 to 98 °C	COc1ccc(NC(=O)CBr)c([N+](=O)[O-])c1
156 °C	OC(Cn1cncn1)(c1ccc(Cl)cc1)C1(n2cnc(Cl)n2)CC1 (stereo unspecified)
182 to 183 °C	Cn1cc(-c2ccc(=O)n(Cc3cccc(-c4ncc(OCCO)cn4)c3)n2)cn1
155 °C	OC1CSC(Oc2cccn3ncnc23)C(O)C1O (stereo unspecified)
188 to 191 °C	Nc1csc2c([N+](=O)[O-])cccc12
90 to 92 °C	Cc1cnc(OCC2CN(C(C)(C)C)C(c3ccccc3)O2)c2cc(Cl)ccc12 (stereo unspecified)

melting point	Compound
169 to 170 °C	COc1ccc(-n2nc(Sc3ccc4ccccc4c3)c(C)c(C#N)c2=O)cc1
176 °C	Nc1cc(Cl)c([N+](=O)[O-])cc1CCO
198 °C	NN1C=Nc2ccc(Cl)cc2C1(O)c1ccccc1Cl (stereo unspecified)
125 to 130 °C	CC(C)(C)OC(=O)n1cc(C(=O)C2CSC(c3cccnc3)N2C(=O)C=O)c2ccccc21 (stereo unspecified)
106 to 108 °C	CCCc1c(OCCCCCCc2ccc(C(C)C)c(OC)c2OC)ccc(C(=O)O)c1O
> 260 °C	COc1ccc(C(=O)Nc2c(Cl)cncc2Cl)c2c1oc1ccncc12
193 °C	CCOc1cc2ncc(Nc3cccc(F)c3)nc2cc1OCC
70 to 75 °C	O=S(=O)(c1ccc(Oc2ccccc2)cc1)c1cccc(S(=O)(=O)c2ccc(Oc3ccccc3)cc2)c1
79 to 81 °C	CCCCCCCCCCCCCCCCSCC(CNS(=O)(=O)CCCI)NC(=O)OC (stereo unspecified)
164 to 165 °C	CC(=Cc1ccc(F)cc1)COc1cc(C)c(NC=O)c(C)c1C
> 300 °C	COC(=O)Oc1nc2c(N)ncnc2n1Cc1ccccc1
71 to 73 °C	c1ccc(COCCOc2ccc(OCc3ccccc3)cc2)cc1
166 to 168 °C	O=C1CCC(N2C(=O)c3cccc(CNC(=O)OCc4ccccc4)c3C2=O)C(=O)N1 (stereo unspecified)
175 °C	CCOC(=O)C=Nc1c(Cl)cccc1C(=O)O
158 to 162 °C	O=S(=O)(c1ccccc1)n1c2ccc(CCc3ccccc3)cc2c2cc(Cl)cnc21
130 to 131 °C	COc1ccc(-c2cc(C(F)(F)F)nn2-c2ccc(S(N)(=O)=O)c(F)c2)cc1
191 to 192 °C	CONC(=O)Nc1ccc(-c2sc3c(c2CN(C)C(C)c2ccccc2)c(=O)n(-c2ccccc2)c(=O)n3Cc2c(F)cccc2F)cc1 (stereo unspecified)
167 to 169 °C	COc1ccc(C2(O)C=CNC(=O)N2)cc1OC1CC2CCC1C2 (stereo unspecified)
222 to 223 °C	S=c1n(CNCc2ccc(Cl)cc2)nc(-c2ccncc2)n1-c1ccccc1
236 to 238 °C	C#CCn1c(=O)ccc2cc(F)c(-n3c(=O)cc(C(F)(F)F)n(C)c3=O)cc21
188 to 191 °C	COc1ccc(-c2cc3ccccc3[nH]2)cc1NC(N)=S
213 to 215 °C	COc1cccc(CNC(=O)c2cc3c(=O)n(Cc4ccc([N+](=O)[O-])nc4)c(=O)n(C)c3s2)c1
210 °C	O=[N+]([O-])c1ccc(/C=C/c2ccc(O)cc2)cc1

Compound	melting point
CN(C)C1(c2ccccc2)CCC(c2cccs2)(c2[nH]c3ccccc3c2CCc2ccncc2)CC1 (stereo unspecified)	54 to 60 °C
CN(C(=O)c1ccc(Cl)c(Cl)c1)C1CCN(C)C12CCCCC2 (stereo unspecified)	138 to 140 °C
C=C1N(c2ccccc2)C(=O)OC12CCNCC2	185 to 186 °C
